This note sets out measurements from publication PMC4954948, “Functional and modular analyses of diverse endoglucanases from Ruminococcus albus 8, a specialist plant cell wall degrading bacterium” (Scientific Reports, 2016).

SMILES strings stand for the structures.

What all share (assay): isothermal titration calorimetry
What all share (format): binding
(In general: Isothermal titration calorimetry measures the heat released or taken up as one component is titrated into another.)

The target of assay [1] is T1, Ra1831 TM1 (Hominimerdicola alba, UniProt E9SGH0).
T1 construct: gene CUS_6389; truncation: C-terminal half of Ra1831 with region of unknown function (CBM65-like) plus CBM37, GH5 domain removed
T1 sequence (E9SGH0 entry or part of it): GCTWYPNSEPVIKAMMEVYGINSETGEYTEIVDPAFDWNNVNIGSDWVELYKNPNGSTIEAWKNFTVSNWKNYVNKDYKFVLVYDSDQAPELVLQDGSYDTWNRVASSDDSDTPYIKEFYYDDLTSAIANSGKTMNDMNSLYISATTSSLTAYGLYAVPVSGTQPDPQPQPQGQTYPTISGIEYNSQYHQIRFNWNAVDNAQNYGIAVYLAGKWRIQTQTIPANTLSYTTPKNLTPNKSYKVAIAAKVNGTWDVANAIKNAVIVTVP
The following applies: 25 °C, 50 mM sodium phosphate, 150 mM NaCl, pH 6.5; weak, parameters not deducible.

Assay [2] addresses T2, Ra2535 TM2 (Hominimerdicola alba, UniProt E9SAY7).
T2 construct: gene CUS_8100
The following applies: 25 °C, 50 mM sodium phosphate, 150 mM NaCl, pH 6.5; single site model; read-out: affinity constant (converted). The source says:
isothermal titration calorimetry on Ra2535 TM2 | The affinity constants of Ra2535 TM1 and TM2 for cellopentaose were similar

Assay [3] addresses T3, Ra2535 TM1 (Hominimerdicola alba, UniProt E9SAY7).
T3 construct: gene CUS_8100
The following applies: 25 °C, 50 mM sodium phosphate, 150 mM NaCl, pH 6.5; single site model; read-out: affinity constant (converted). The source says:
isothermal titration calorimetry on Ra2535 TM1 | The affinity constants of Ra2535 TM1 and TM2 for cellopentaose were similar

T2 sequence (E9SAY7 entry or part of it): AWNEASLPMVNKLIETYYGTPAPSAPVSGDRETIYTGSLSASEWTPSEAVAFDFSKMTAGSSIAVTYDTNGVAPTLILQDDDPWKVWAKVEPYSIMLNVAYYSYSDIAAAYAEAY
T3 sequence (E9SAY7 entry or part of it): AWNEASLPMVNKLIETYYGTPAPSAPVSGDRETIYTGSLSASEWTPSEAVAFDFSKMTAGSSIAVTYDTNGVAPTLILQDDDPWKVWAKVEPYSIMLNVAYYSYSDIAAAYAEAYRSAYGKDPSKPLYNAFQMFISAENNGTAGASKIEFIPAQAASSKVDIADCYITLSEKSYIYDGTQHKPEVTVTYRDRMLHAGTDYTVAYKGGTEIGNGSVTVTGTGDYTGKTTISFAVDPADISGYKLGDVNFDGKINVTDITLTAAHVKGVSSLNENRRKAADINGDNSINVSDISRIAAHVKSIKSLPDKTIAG

Consider `OC[C@H]1O[C@@H](O[C@H]2[C@H](O)[C@@H](O)[C@H](O[C@H]3[C@H](O)[C@@H](O)[C@H](O[C@H]4[C@H](O)[C@@H](O)[C@H](O[C@H]5[C@H](O)[C@@H](O)C(O)O[C@@H]5CO)O[C@@H]4CO)O[C@@H]3CO)O[C@@H]2CO)[C@H](O)[C@@H](O)[C@@H]1O` (stereo partly drawn) [cellopentaose], for which, in assay [1], the isothermal titration calorimetry entry is recorded as “The representative ITC data for Ra1831 TM1 was not very different from that of TM2”. Also, the Kd in assay [2] and in assay [3] was 5.95 µM in each case.
